Experiments:
[1] = tested on: crabgrass, large; assay: Test A pre-/postemergence herbicide test; format: in vivo, Digitaria sanguinalis; details: for Plant response rating, Crabgrass, Large: 0 to 100 scale
Outline: (§1)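 Visual 0–100 ratings (100 = complete control) made about 10 days after treatment, greenhouse-held plants compared with untreated controls. Treatments: postemergence sprays on one- to two-leaf plants (2–10 cm tall) and preemergence directed soil sprays after planting in loam–sand, chemicals formulated in non-phytotoxic solvent containing surfactant.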

[2] = tested on: giant foxtail; assay: Test A pre-/postemergence herbicide test; format: in vivo, Setaria faberii; details: for Plant response rating, Foxtail, Giant: 0 to 100 scale
Outline: as §1

[3] = tested on: pigweed; assay: Test A pre-/postemergence herbicide test; format: in vivo, Amaranthus retroflexus; details: for Plant response rating, Pigweed: 0 to 100 scale
Outline: as §1

[4] = tested on: ducksalad; assay: Test B flooded paddy test; format: in vivo, Heteranthera limosa; details: Flood, scale of 0 to 100 where 0 is no effect and 100 is complete control
Outline: (§2)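 Plants grown to 2-leaf stage; pots flooded 3 cm above soil and compound applied directly into paddy water, depth held throughout. Visual rating against untreated controls after 13 to 15 days in greenhouse, 0 (no effect) to 100 (complete control).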

[5] = tested on: velvetleaf; assay: Test A pre-/postemergence herbicide test; format: in vivo, Abutilon theophrasti; details: for Plant response rating, Velvetleaf: 0 to 100 scale
Outline: as §1

[6] = tested on: barnyardgrass; assay: Test A pre-/postemergence herbicide test; format: in vivo, Echinochloa crus-galli; details: for Plant response rating, Barnyardgrass: 0 to 100 scale
Outline: as §1

[7] = tested on: corn; assay: Test A pre-/postemergence herbicide test; format: in vivo, Zea mays; details: for Plant response rating, Corn: 0 to 100 scale
Outline: as §1

[8] = tested on: morningglory; assay: Test A pre-/postemergence herbicide test; format: in vivo, Ipomoea spp.; details: for Plant response rating, Morningglory: 0 to 100 scale
Outline: as §1

[9] = tested on: sedge, umbrella; assay: Test B flooded paddy test; format: in vivo, Cyperus difformis; details: Flood, scale of 0 to 100 where 0 is no effect and 100 is complete control
Outline: as §2

[10] = tested on: rice; assay: Test B flooded paddy test; format: in vivo, Oryza sativa; details: Flood, scale of 0 to 100 where 0 is no effect and 100 is complete control
Outline: as §2

[11] = tested on: wheat; assay: Test A pre-/postemergence herbicide test; format: in vivo, Triticum aestivum; details: for Plant response rating, Wheat: 0 to 100 scale
Outline: as §1

[12] = tested on: barnyardgrass; assay: Test B flooded paddy test; format: in vivo, Echinochloa crus-galli; details: Flood, scale of 0 to 100 where 0 is no effect and 100 is complete control
Outline: as §2

[13] = 125 g ai/ha, visual rating, 0 no effect, 100 complete control, approximately 10 days, preemergence
[14] = Postemergence, 125 g ai/ha, 0 is no effect, 100 is complete control
[15] = preemergence, 500 g ai/ha, 0 is no effect and 100 is complete control

COc1cc(C2CNC(=O)C2C(=O)Nc2ccccc2F)ccc1F (racemic) [Compound 194]
Plant response rating, Crabgrass, Large [1, 13]: 90 | Plant response rating, Crabgrass, Large [1, 14]: 60 | Crabgrass, Large plant response rating (0 to 100 scale, 0 is no effect, 100 is complete control) ([1]; Postemergence, 500 g ai/ha): 80 | Plant response rating, Crabgrass, Large [1, 15]: 100 | Plant response rating, Foxtail, Giant [2, 13]: 50 | Plant response rating, Foxtail, Giant [2, 14]: 10 | Foxtail, Giant plant response rating (0 to 100 scale, 0 is no effect, 100 is complete control) ([2]; Postemergence, 500 g ai/ha): 50 | Plant response rating, Foxtail, Giant [2, 15]: 90 | Plant response rating, Pigweed [3, 13]: 0 | Plant response rating, Pigweed [3, 14]: 0 | Pigweed plant response rating (0 to 100 scale, 0 is no effect, 100 is complete control) ([3]; Postemergence, 500 g ai/ha): 0 | Plant response rating, Pigweed [3, 15]: 0 | Plant response rating, Ducksalad ([4]; 250 g ai/ha): 45 | Plant response rating, Ducksalad ([4]; 1000 g ai/ha): 80 | Plant response rating, Velvetleaf [5, 13]: 0 | Plant response rating, Velvetleaf [5, 14]: 0 | Velvetleaf plant response rating (0 to 100 scale, 0 is no effect, 100 is complete control) ([5]; Postemergence, 500 g ai/ha): 0 | Plant response rating, Velvetleaf [5, 15]: 0 | Plant response rating, Barnyardgrass [6, 13]: 0 | Plant response rating, Barnyardgrass [6, 14]: 50 | Barnyardgrass plant response rating (0 to 100 scale, 0 is no effect, 100 is complete control) ([6]; Postemergence, 500 g ai/ha): 80 | Plant response rating, Barnyardgrass [6, 15]: 80 | Plant response rating, Corn [7, 13]: 0 | Plant response rating, Corn [7, 14]: 0 | Corn plant response rating (0 to 100 scale, 0 is no effect, 100 is complete control) ([7]; Postemergence, 500 g ai/ha): 0 | Plant response rating, Corn [7, 15]: 0 | Plant response rating, Morningglory [8, 13]: 0 | Plant response rating, Morningglory [8, 14]: 0 | Morningglory plant response rating (0 to 100 scale, 0 is no effect, 100 is complete control) ([8]; Postemergence, 500 g ai/ha): 0 | Plant response rating, Morningglory [8, 15]: 0 | Plant response rating, Sedge, Umbrella ([9]; 250 g ai/ha): 0 | Plant response rating, Sedge, Umbrella ([9]; 1000 g ai/ha): 0 | Plant response rating, Rice ([10]; 250 g ai/ha): 0 | Plant response rating, Rice ([10]; 1000 g ai/ha): 20 | Plant response rating, Wheat [11, 13]: 0 | Plant response rating, Wheat [11, 14]: 0 | Wheat plant response rating (0 to 100 scale, 0 is no effect, 100 is complete control) ([11]; Postemergence, 500 g ai/ha): 0 | Plant response rating, Wheat [11, 15]: 0 | Plant response rating, Barnyardgrass ([12]; 250 g ai/ha): 0 | Plant response rating, Barnyardgrass ([12]; 1000 g ai/ha): 65

COc1cc(C2CNC(=O)C2C(=O)Nc2cccc(F)c2F)ccc1F (racemic) [Compound 195]
Plant response rating, Crabgrass, Large [1, 13]: 90 | Plant response rating, Crabgrass, Large [1, 14]: 80 | Crabgrass, Large plant response rating (0 to 100 scale, 0 is no effect, 100 is complete control) ([1]; Postemergence, 500 g ai/ha): 80 | Plant response rating, Crabgrass, Large [1, 15]: 90 | Plant response rating, Foxtail, Giant [2, 13]: 80 | Plant response rating, Foxtail, Giant [2, 14]: 30 | Foxtail, Giant plant response rating (0 to 100 scale, 0 is no effect, 100 is complete control) ([2]; Postemergence, 500 g ai/ha): 70 | Plant response rating, Foxtail, Giant [2, 15]: 90 | Plant response rating, Pigweed [3, 13]: 0 | Plant response rating, Pigweed [3, 14]: 0 | Pigweed plant response rating (0 to 100 scale, 0 is no effect, 100 is complete control) ([3]; Postemergence, 500 g ai/ha): 0 | Plant response rating, Pigweed [3, 15]: 0 | Plant response rating, Ducksalad ([4]; 250 g ai/ha): 35 | Plant response rating, Ducksalad ([4]; 1000 g ai/ha): 100 | Plant response rating, Velvetleaf [5, 13]: 0 | Plant response rating, Velvetleaf [5, 14]: 0 | Velvetleaf plant response rating (0 to 100 scale, 0 is no effect, 100 is complete control) ([5]; Postemergence, 500 g ai/ha): 0 | Plant response rating, Velvetleaf [5, 15]: 0 | Plant response rating, Barnyardgrass [6, 13]: 30 | Plant response rating, Barnyardgrass [6, 14]: 80 | Barnyardgrass plant response rating (0 to 100 scale, 0 is no effect, 100 is complete control) ([6]; Postemergence, 500 g ai/ha): 90 | Plant response rating, Barnyardgrass [6, 15]: 90 | Plant response rating, Corn [7, 13]: 0 | Plant response rating, Corn [7, 14]: 0 | Corn plant response rating (0 to 100 scale, 0 is no effect, 100 is complete control) ([7]; Postemergence, 500 g ai/ha): 0 | Plant response rating, Corn [7, 15]: 0 | Plant response rating, Morningglory [8, 13]: 0 | Plant response rating, Morningglory [8, 14]: 0 | Morningglory plant response rating (0 to 100 scale, 0 is no effect, 100 is complete control) ([8]; Postemergence, 500 g ai/ha): 0 | Plant response rating, Morningglory [8, 15]: 0 | Plant response rating, Sedge, Umbrella ([9]; 250 g ai/ha): 0 | Plant response rating, Sedge, Umbrella ([9]; 1000 g ai/ha): 0 | Plant response rating, Rice ([10]; 250 g ai/ha): 0 | Plant response rating, Rice ([10]; 1000 g ai/ha): 15 | Plant response rating, Wheat [11, 13]: 0 | Plant response rating, Wheat [11, 14]: 0 | Wheat plant response rating (0 to 100 scale, 0 is no effect, 100 is complete control) ([11]; Postemergence, 500 g ai/ha): 30 | Plant response rating, Wheat [11, 15]: 0 | Plant response rating, Barnyardgrass ([12]; 250 g ai/ha): 30 | Plant response rating, Barnyardgrass ([12]; 1000 g ai/ha): 70

COc1cc(C2CNC(=O)C2C(=O)Nc2ccccc2C(F)(F)F)ccc1F (racemic) [Compound 196]
Plant response rating, Crabgrass, Large [1, 13]: 90 | Plant response rating, Crabgrass, Large [1, 14]: 70 | Crabgrass, Large plant response rating (0 to 100 scale, 0 is no effect, 100 is complete control) ([1]; Postemergence, 500 g ai/ha): 80 | Plant response rating, Crabgrass, Large [1, 15]: 100 | Plant response rating, Foxtail, Giant [2, 13]: 80 | Plant response rating, Foxtail, Giant [2, 14]: 20 | Foxtail, Giant plant response rating (0 to 100 scale, 0 is no effect, 100 is complete control) ([2]; Postemergence, 500 g ai/ha): 70 | Plant response rating, Foxtail, Giant [2, 15]: 90 | Plant response rating, Pigweed [3, 13]: 0 | Plant response rating, Pigweed [3, 14]: 0 | Pigweed plant response rating (0 to 100 scale, 0 is no effect, 100 is complete control) ([3]; Postemergence, 500 g ai/ha): 0 | Plant response rating, Pigweed [3, 15]: 0 | Plant response rating, Ducksalad ([4]; 250 g ai/ha): 0 | Plant response rating, Ducksalad ([4]; 1000 g ai/ha): 90 | Plant response rating, Velvetleaf [5, 13]: 0 | Plant response rating, Velvetleaf [5, 14]: 0 | Velvetleaf plant response rating (0 to 100 scale, 0 is no effect, 100 is complete control) ([5]; Postemergence, 500 g ai/ha): 0 | Plant response rating, Velvetleaf [5, 15]: 0 | Plant response rating, Barnyardgrass [6, 13]: 0 | Plant response rating, Barnyardgrass [6, 14]: 30 | Barnyardgrass plant response rating (0 to 100 scale, 0 is no effect, 100 is complete control) ([6]; Postemergence, 500 g ai/ha): 80 | Plant response rating, Barnyardgrass [6, 15]: 70 | Plant response rating, Corn [7, 13]: 0 | Plant response rating, Corn [7, 14]: 0 | Corn plant response rating (0 to 100 scale, 0 is no effect, 100 is complete control) ([7]; Postemergence, 500 g ai/ha): 0 | Plant response rating, Corn [7, 15]: 0 | Plant response rating, Morningglory [8, 13]: 0 | Plant response rating, Morningglory [8, 14]: 0 | Morningglory plant response rating (0 to 100 scale, 0 is no effect, 100 is complete control) ([8]; Postemergence, 500 g ai/ha): 0 | Plant response rating, Morningglory [8, 15]: 0 | Plant response rating, Sedge, Umbrella ([9]; 250 g ai/ha): 0 | Plant response rating, Sedge, Umbrella ([9]; 1000 g ai/ha): 0 | Plant response rating, Rice ([10]; 250 g ai/ha): 0 | Plant response rating, Rice ([10]; 1000 g ai/ha): 0 | Plant response rating, Wheat [11, 13]: 0 | Plant response rating, Wheat [11, 14]: 0 | Wheat plant response rating (0 to 100 scale, 0 is no effect, 100 is complete control) ([11]; Postemergence, 500 g ai/ha): 0 | Plant response rating, Wheat [11, 15]: 0 | Plant response rating, Barnyardgrass ([12]; 250 g ai/ha): 0 | Plant response rating, Barnyardgrass ([12]; 1000 g ai/ha): 20

Source: US10294202B2, “Pyrrolidinones as herbicides” (FMC Corporation, priority 2013, dated 2019)
